Measured values from patent publication US20250333420A1, “FUSED BICYCLIC PYRIMIDONES AS WRN INHIBITORS” (INCYTE CORPORATION, priority 2023, published 2025).
Where a name gives a salt, the structure may show the parent alone.

How the values were obtained:
WRN [1] = target: T1, WRN (Homo sapiens, UniProt Q14191); assay: WRN ATPase activity assay (ADP-Glo); format: biochemical; settings: 1-hr pre-incubation with enzyme; 100 μM ATP, 25 nM forked dsDNA, 1 nM WRN; geometric mean of at least 2 replicates
T1 construct: A His-tagged construct of WRN (AA S2-S1235) was produced and used for the ATPase assay; His tag; made in house; host or cells: Sf9 insect cells (baculovirus, pFastBac1)
Experimental: Compounds of the Examples were tested for WRN ATPase activity. WRN ATPase activity catalyzes ATP hydrolysis to produce ADP and phosphate. DNA encoding the target protein, 6×HIS-TEV-WRN-517-945, was produced, cloned and transfected as detailed in Example D. The amount of ADP produced was measured using ADP-Glo™ Kinase Assay kit from Promega Corporation in a Greiner white regular volume 384 wells assay plate (Greiner #781075). Data was normalized to a standard curve generated using various ADP concentrations and the corresponding luminescent signal intensities at each concentration. The assay conditions were optimized for enzyme concentration (WRN), substrate concentrations (ATP & dsDNA), and the linearity of the ATPase reaction, in the following assay buffer: 50 mM Tris-HCl, pH-7.5, 2 mM MgCl2, 50 mM NaCl, 1 mM EGTA, 0.01% P-20, 0.05% BSA, and 2 mM DTT prepared with nuclease free water.
A serial dilution (1:3 scheme) of the compounds were prepared in neat DMSO, with 100 nL of the compounds dispensed in the 384 wells assay plate. An 1-hr pre-incubation of the compounds with enzyme was included. A His-tagged construct of WRN (AA S2-S1235) was produced and used for the ATPase assay. Maximum inhibition control wells were set up with the addition of only assay buffer, and no inhibition control wells were set up with neat DMSO without test compounds. The reaction was initiated by addition of 5 μL substrate mix (200 μM ultrapure ATP, and 50 nM dsDNA prepared in assay buffer) and incubated at 25° C. for 35 min. A forked dsDNA oligomer substrate was prepared by annealing equal amounts of oligo GPat-1 ([BHQ2][…]) and oligo GPat-2 ([…][TAM]) and was used as dsDNA substrate for WRN ATPase assay. A typical ATPase reaction consists of 25 nM forked dsDNA, 100 μM ATP, and 1 nM WRN prepared in assay buffer. The WRN ATPase reaction was stopped by the addition of 5 μL of ADP-Glo Reagent from ADP-Glo™ Kinase Assay kit and incubated for 40 min to deplete the unreacted ATP. Afterwards, 5 μL of Kinase Detection Reagent from the ADP-Glo™ Kinase Assay kit was added and incubated for 1 hr for the development of luminescence signal.
Luminesce signals were measured on BMG PHERAstar FSX using luminescence protocol. Data analysis was carried out using Genedata software following % of control normalization. Fitting parameters include dose response IC50, Hill slope (n), maximum inhibition (S∞), and minimum inhibition (S0). The reported IC50 values for compounds in this invention are the geometric means of at least 2 independent replicates.

WRN [2] = target: T1, WRN; assay: WRN helicase activity assay (fluorescence DNA unwinding); format: biochemical; settings: 1-hr pre-incubation with enzyme; 100 μM ATP, 25 nM forked dsDNA, 1 nM WRN; geometric mean of at least 2 replicates
Experimental: Compounds of the examples were tested for WRN helicase activity. DNA encoding the target protein, 6×HIS-TEV-WRN-517-945, was produced, cloned and transfected as detailed in Example D. To determine the inhibitory properties of the compounds, a 384 wells plate-based Helicase assay was set up to measure the extent of DNA unwinding (Helicase) activity of WRN. The WRN Helicase assay was designed to measure increase in fluorescence signal using a fluorescence based, donor-quencher paired forked dsDNA oligomer substrate (custom synthesis from Sigma-Aldrich) prepared by annealing equal amounts of oligo GPat-1 ([BHQ2][…]) and oligo GPat-2 ([…][TAM]). Continuous measurement of fluorescent signal was used to optimize the buffer conditions, concentration of enzyme (WRN), concentration of substrates (ATP & dsDNA), and the linearity of the Helicase reaction. All solutions were prepared in the following assay buffer: 50 mM Tris-HCl, pH-7.5, 2 mM MgCl2, 50 mM NaCl, 1 mM EGTA, 0.01% P-20, 0.05% BSA, and 2 mM DTT prepared with nuclease free water.
A serial dilution (1:3 scheme) of the compounds was prepared in neat DMSO and 100 nL of the compounds was dispensed in the Greiner black low volume (Greiner #784076) 384 wells assay plate. An 1-hr pre-incubation of the compounds with enzyme was included. A His-tagged construct of WRN (AA S2-S1235) was produced and used for the ATPase assay. Maximum inhibition control wells were set up with the addition of only assay buffer, and no inhibition control wells were set up with neat DMSO without test compounds. The reaction was initiated by addition of 5 μL substrate mix (200 μM ultrapure ATP, and 50 nM dsDNA prepared in assay buffer) and incubated at 25° C. for 35 min. A typical Helicase reaction consists of 25 nM forked dsDNA, 100 μM ATP, and 1 nM WRN prepared in assay buffer. The WRN Helicase reaction was quenched by the addition of 5 μL ‘STOP’ solution containing 100 mM EDTA (final EDTA concentration 33.33 mM) prepared in assay buffer. The plates were read on BMG PHERAstar FSX using 540/590 module to measure an increase of fluorescence. Data analysis was carried out using the Genedata software following % of control normalization. Fitting parameters include dose response IC50, Hill slope (n), maximum inhibition (S∞), and minimum inhibition (S0). The reported IC50 values for compounds in this invention are the geometric means of at least 2 independent replicates.

T1 sequence (Q14191 2-1235): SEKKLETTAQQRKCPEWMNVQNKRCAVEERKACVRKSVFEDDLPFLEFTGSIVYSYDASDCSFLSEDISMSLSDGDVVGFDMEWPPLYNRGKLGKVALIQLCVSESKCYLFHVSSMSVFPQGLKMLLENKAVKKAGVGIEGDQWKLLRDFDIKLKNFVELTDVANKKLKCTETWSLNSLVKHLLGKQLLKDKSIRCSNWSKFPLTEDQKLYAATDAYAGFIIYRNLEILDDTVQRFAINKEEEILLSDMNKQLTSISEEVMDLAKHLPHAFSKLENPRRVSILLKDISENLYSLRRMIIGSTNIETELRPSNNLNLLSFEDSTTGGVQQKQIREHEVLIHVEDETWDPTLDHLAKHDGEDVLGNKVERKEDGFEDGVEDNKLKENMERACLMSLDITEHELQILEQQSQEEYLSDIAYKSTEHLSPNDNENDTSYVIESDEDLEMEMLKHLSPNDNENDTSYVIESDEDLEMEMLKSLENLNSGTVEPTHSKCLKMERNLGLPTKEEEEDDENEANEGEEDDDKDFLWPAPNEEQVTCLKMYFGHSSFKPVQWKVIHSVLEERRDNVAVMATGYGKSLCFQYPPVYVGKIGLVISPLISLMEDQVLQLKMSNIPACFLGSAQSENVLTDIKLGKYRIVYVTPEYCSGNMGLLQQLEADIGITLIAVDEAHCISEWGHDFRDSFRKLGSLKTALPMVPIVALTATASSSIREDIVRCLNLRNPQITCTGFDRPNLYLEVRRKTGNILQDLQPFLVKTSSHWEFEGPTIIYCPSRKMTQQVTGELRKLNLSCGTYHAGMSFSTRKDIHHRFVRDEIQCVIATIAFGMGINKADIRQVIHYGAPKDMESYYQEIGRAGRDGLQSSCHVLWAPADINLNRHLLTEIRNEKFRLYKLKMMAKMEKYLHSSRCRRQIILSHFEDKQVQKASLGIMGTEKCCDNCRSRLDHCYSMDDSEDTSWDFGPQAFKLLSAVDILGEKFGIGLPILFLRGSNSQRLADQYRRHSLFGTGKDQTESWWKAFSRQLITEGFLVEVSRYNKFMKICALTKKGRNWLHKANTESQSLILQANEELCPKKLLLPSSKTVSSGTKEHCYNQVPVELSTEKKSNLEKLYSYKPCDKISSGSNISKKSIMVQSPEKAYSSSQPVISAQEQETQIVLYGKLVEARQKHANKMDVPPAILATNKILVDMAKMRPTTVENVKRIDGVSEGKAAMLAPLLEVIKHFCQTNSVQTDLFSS

| SMILES | IC50 (WRN [1]) [nM] | IC50 (WRN [2]) [nM] |
| --- | --- | --- |
| C=CC(=O)Nc1ccccc1-n1c(CC)nc2c(c(C)c(C)n2CC(=O)Nc2ccc(C(F)(F)F)cc2)c1=O [Example 3, N-(2-(2-Ethyl-5,6-dimethyl-4-oxo-7-(2-oxo-2-((4-(trifluoromethyl)phenyl)amino)ethyl)-4,7-dihydro-3H-pyrrolo[2,3-d]pyrimidin-3-yl)phenyl)acrylamide] | < 100 | < 100 |
| C=CS(=O)(=O)Nc1ccccc1-n1c(CC)nc2c(cnn2CC(=O)Nc2ccc(C(F)(F)F)cc2)c1=O [Example 2, 2-(6-Ethyl-4-oxo-5-(2-(vinylsulfonamido)phenyl)-4,5-dihydro-1H-pyrazolo[3,4-d]pyrimidin-1-yl)-N-(4-(trifluoromethyl)phenyl)acetamide] | < 100 | < 100 |
| C=CC(=O)Nc1ccccc1-n1c(CC)nc2c(c(C)c(C)n2CC(=O)Nc2ccc(F)cc2)c1=O [Example 5, N-(2-(2-Ethyl-7-(2-((4-fluorophenyl)amino)-2-oxoethyl)-5,6-dimethyl-4-oxo-4,7-dihydro-3H-pyrrolo[2,3-d]pyrimidin-3-yl)phenyl)acrylamide] | < 100 | < 100 |
| C=CC(=O)Nc1cc(C(=O)NCC)ccc1-n1c(CC)nc2c(c(C)c(C)n2CC(=O)Nc2ccc(C(F)(F)F)cc2)c1=O [Example 6, 3-Acrylamido-N-ethyl-4-(2-ethyl-5,6-dimethyl-4-oxo-7-(2-oxo-2-((4-(trifluoromethyl)phenyl)amino)ethyl)-4,7-dihydro-3H-pyrrolo[2,3-d]pyrimidin-3-yl)benzamide, trifluoroacetate salt] | < 100 | < 100 |
| C=CC(=O)Nc1ccccc1-n1c(CC)nc2c(cnn2CC(=O)Nc2ccc(C(F)(F)F)cc2)c1=O [Example 1, N-(2-(6-Ethyl-4-oxo-1-(2-oxo-2-((4-(trifluoromethyl)phenyl)amino)ethyl)-1,4-dihydro-5H-pyrazolo[3,4-d]pyrimidin-5-yl)phenyl)acrylamide] | 1000 to 5000 | 1000 to 5000 |
| C=CC(=O)Nc1cc(C(=O)NCC)ccc1-n1c(CC)nc2c(c(C)c(C)n2CC(=O)Nc2ccc(F)cc2)c1=O [Example 7, 3-Acrylamido-N-ethyl-4-(2-ethyl-7-(2-((4-fluorophenyl)amino)-2-oxoethyl)-5,6-dimethyl-4-oxo-4,7-dihydro-3H-pyrrolo[2,3-d]pyrimidin-3-yl)benzamide, trifluoroacetate salt] | < 100 | < 100 |
| C=CC(=O)Nc1ccccc1-n1c(CC)nc2c(c(C)c(C)n2CC(=O)Nc2ccc(C(F)(F)F)cc2Cl)c1=O [Example 4, N-(2-(7-(2-((2-Chloro-4-(trifluoromethyl)phenyl)amino)-2-oxoethyl)-2-ethyl-5,6-dimethyl-4-oxo-4,7-dihydro-3H-pyrrolo[2,3-d]pyrimidin-3-yl)phenyl)acrylamide] | < 100 | < 100 |
